{
  "source": "ChEMBL document CHEMBL3044672",
  "about": "“N9- and N7-(Chloromethyl Phenymethyl)Chloropurine Derivatives from , '-Dichloroxylenes: Synthesis and Anticancer Activity” (2005)",
  "assay_type_in_all_cases": "functional",
  "key": {"OVCAR-4": {"system": "OVCAR-4", "assay": "Cytotoxicity against Homo sapiens (human) OVCAR4 cells after 48 hr by sulforhodamine B assay", "details": "OVCAR-4, 48 h"}, "IGROV-1": {"system": "IGROV-1", "assay": "Cytotoxicity against Homo sapiens (human) IGROV1 cells after 48 hr by sulforhodamine B assay", "details": "IGROV-1, 48 h"}, "OVCAR-3": {"system": "OVCAR-3", "assay": "Cytotoxicity against Homo sapiens (human) OVCAR3 cells after 48 hr by sulforhodamine B assay", "details": "OVCAR-3, 48 h"}, "UACC-62": {"system": "UACC-62", "assay": "Cytotoxicity against Homo sapiens (human) UACC62 cells after 48 hr by sulforhodamine B assay", "details": "UACC-62, 48 h"}, "UACC-257": {"system": "UACC-257", "assay": "Cytotoxicity against Homo sapiens (human) UACC257 cells after 48 hr by sulforhodamine B assay", "details": "UACC-257, 48 h"}, "SK-MEL-5": {"system": "SK-MEL-5", "assay": "Cytotoxicity against Homo sapiens (human) SK-MEL-5 cells after 48 hr by sulforhodamine B assay", "details": "SK-MEL-5, 48 h"}, "SK-MEL-2": {"system": "SK-MEL-2", "assay": "Cytotoxicity against Homo sapiens (human) SK-MEL-2 cells after 48 hr by sulforhodamine B assay", "details": "SK-MEL-2, 48 h"}, "U-251": {"system": "U-251", "assay": "Cytotoxicity against Homo sapiens (human) U251 cells after 48 hr by sulforhodamine B assay", "details": "U-251, 48 h"}, "SF-539": {"system": "SF-539", "assay": "Cytotoxicity against Homo sapiens (human) SF539 cells after 48 hr by sulforhodamine B assay", "details": "SF-539, 48 h"}, "MDA-MB-435": {"system": "MDA-MB-435", "assay": "Cytotoxicity against Homo sapiens (human) MDA-MB-435 cells after 48 hr by sulforhodamine B assay", "details": "MDA-MB-435, 48 h"}, "[1]": {"assay": "Cytotoxicity against Homo sapiens (human) NCI-ADR-RES cells after 48 hr by sulforhodamine B assay"}, "MDA-MB-231": {"system": "MDA-MB-231", "assay": "Cytotoxicity against Homo sapiens (human) MDA-MB-231 cells after 48 hr by sulforhodamine B assay", "details": "MDA-MB-231, 48 h"}, "PC-3": {"system": "PC-3", "assay": "Cytotoxicity against Homo sapiens (human) PC3 cells after 48 hr by sulforhodamine B assay", "details": "PC-3, 48 h"}, "SN12C": {"system": "SN12C", "assay": "Cytotoxicity against Homo sapiens (human) SN12C cells after 48 hr by sulforhodamine B assay"}, "CAKI-1": {"system": "CAKI-1", "assay": "Cytotoxicity against Homo sapiens (human) Caki1 cells after 48 hr by sulforhodamine B assay", "details": "CAKI-1, 48 h"}, "KM12": {"system": "KM12", "assay": "Cytotoxicity against Homo sapiens (human) KM12 cells after 48 hr by sulforhodamine B assay", "details": "KM12, 48 h"}, "HT-29": {"system": "HT-29", "assay": "Cytotoxicity against Homo sapiens (human) HT-29 cells after 48 hr by sulforhodamine B assay", "details": "HT-29, 48 h"}, "HCT-116": {"system": "HCT-116", "assay": "Cytotoxicity against Homo sapiens (human) HCT116 cells after 48 hr by sulforhodamine B assay", "details": "HCT-116, 48 h"}, "HCC 2998": {"system": "HCC 2998", "assay": "Cytotoxicity against Homo sapiens (human) HCC2998 cells after 48 hr by sulforhodamine B assay", "details": "HCC 2998, 48 h"}, "COLO 205": {"system": "COLO 205", "assay": "Cytotoxicity against Homo sapiens (human) COLO205 cells after 48 hr by sulforhodamine B assay", "details": "COLO 205, 48 h"}, "NCI-H522": {"system": "NCI-H522", "assay": "Cytotoxicity against Homo sapiens (human) NCI-H522 cells after 48 hr by sulforhodamine B assay", "details": "NCI-H522, 48 h"}, "NCI-H322M": {"system": "NCI-H322M", "assay": "Cytotoxicity against Homo sapiens (human) NCI-H322M cells after 48 hr by sulforhodamine B assay"}, "NCI-H23": {"system": "NCI-H23", "assay": "Cytotoxicity against Homo sapiens (human) NCI-H23 cells after 48 hr by sulforhodamine B assay", "details": "NCI-H23, 48 h"}, "NCI-H226": {"system": "NCI-H226", "assay": "Cytotoxicity against Homo sapiens (human) NCI-H226 cells after 48 hr by sulforhodamine B assay", "details": "NCI-H226, 48 h"}, "HOP-62": {"system": "HOP-62", "assay": "Cytotoxicity against Homo sapiens (human) HOP62 cells after 48 hr by sulforhodamine B assay", "details": "HOP-62, 48 h"}, "EKVX": {"system": "EKVX", "assay": "Cytotoxicity against Homo sapiens (human) EKVX cells after 48 hr by sulforhodamine B assay"}, "A549": {"system": "A549", "assay": "Cytotoxicity against Homo sapiens (human) A549 cells after 48 hr by sulforhodamine B assay", "details": "A549, 48 h"}, "MOLT-4": {"system": "MOLT-4", "assay": "Cytotoxicity against Homo sapiens (human) MOLT4 cells after 48 hr by sulforhodamine B assay", "details": "MOLT-4, 48 h"}, "K562": {"system": "K562", "assay": "Cytotoxicity against Homo sapiens (human) K562 cells after 48 hr by sulforhodamine B assay", "details": "K562, 48 h"}, "SF-268": {"system": "SF-268", "assay": "Cytotoxicity against Homo sapiens (human) SF268 cells assessed as cell growth at 10^-4 M after 48 hr by […] assay", "details": "SF-268, 48 h, read-out: Activity"}, "[2]": {"details": "read-out: LC50 (the source's name)"}},
  "data": [
    {"smiles": "Nc1nc(Cl)c2ncn(Cc3ccccc3CCl)c2n1", "values": [
      {"measurement": "LC50 (concentration killing 50% of cells)", "setting": "OVCAR-4", "result": 50.1, "unit": "µM"},
      {"measurement": "TGI", "setting": "OVCAR-4", "result": 6.46, "unit": "µM"},
      {"measurement": "LC50", "setting": "IGROV-1", "result": "> 100", "unit": "µM"},
      {"measurement": "TGI", "setting": "IGROV-1", "result": "> 100", "unit": "µM"},
      {"measurement": "LC50", "setting": "OVCAR-3", "result": 46.8, "unit": "µM"},
      {"measurement": "TGI", "setting": "OVCAR-3", "result": 20, "unit": "µM"},
      {"measurement": "LC50 (concentration causing 50% net cell kill)", "setting": "UACC-62", "result": 8.51, "unit": "µM"},
      {"measurement": "TGI", "setting": "UACC-62", "result": 4.37, "unit": "µM"},
      {"measurement": "LC50 (concentration killing 50% of cells)", "setting": "UACC-257", "result": "> 100", "unit": "µM"},
      {"measurement": "TGI", "setting": "UACC-257", "result": 38, "unit": "µM"},
      {"measurement": "LC50", "setting": "SK-MEL-5", "result": 75.9, "unit": "µM"},
      {"measurement": "TGI", "setting": "SK-MEL-5", "result": 26.3, "unit": "µM"},
      {"measurement": "LC50 (concentration killing 50% of cells)", "setting": "SK-MEL-2", "result": "> 100", "unit": "µM"},
      {"measurement": "TGI", "setting": "SK-MEL-2", "result": 81.3, "unit": "µM"},
      {"measurement": "LC50 (concentration killing 50% of cells)", "setting": "U-251", "result": 72.4, "unit": "µM"},
      {"measurement": "TGI", "setting": "U-251", "result": 13.5, "unit": "µM"},
      {"measurement": "LC50 (concentration killing 50% of cells)", "setting": "SF-539", "result": 81.3, "unit": "µM"},
      {"measurement": "TGI", "setting": "SF-539", "result": 38, "unit": "µM"},
      {"measurement": "LC50", "setting": "MDA-MB-435", "result": "> 100", "unit": "µM"},
      {"measurement": "TGI", "setting": "MDA-MB-435", "result": 26.9, "unit": "µM"},
      {"measurement": "LC50 (concentration killing 50% of cells)", "setting": "[1]", "result": "> 100", "unit": "µM"},
      {"measurement": "TGI", "setting": "[1]", "result": 34.7, "unit": "µM"},
      {"measurement": "LC50", "setting": "MDA-MB-231", "result": 63.1, "unit": "µM"},
      {"measurement": "TGI", "setting": "MDA-MB-231", "result": 9.55, "unit": "µM"},
      {"measurement": "LC50 (concentration causing 50% cell kill)", "setting": "PC-3", "result": "> 100", "unit": "µM"},
      {"measurement": "TGI", "setting": "PC-3", "result": 67.6, "unit": "µM"},
      {"measurement": "LC50 (50% lethal concentration)", "setting": "SN12C", "result": 19.5, "unit": "µM"},
      {"measurement": "TGI", "setting": "SN12C", "result": 5.62, "unit": "µM"},
      {"measurement": "TGI", "setting": "CAKI-1", "result": 20.4, "unit": "µM"},
      {"measurement": "CC50", "setting": "CAKI-1; [2]", "result": 50.1, "unit": "µM"},
      {"measurement": "TGI", "setting": "KM12", "result": 38.9, "unit": "µM"},
      {"measurement": "CC50", "setting": "KM12; [2]", "result": 97.2, "unit": "µM"},
      {"measurement": "TGI", "setting": "HT-29", "result": 19.1, "unit": "µM"},
      {"measurement": "CC50", "setting": "HT-29; [2]", "result": "> 100", "unit": "µM"},
      {"measurement": "TGI", "setting": "HCT-116", "result": "> 100", "unit": "µM"},
      {"measurement": "CC50", "setting": "HCT-116; [2]", "result": "> 100", "unit": "µM"},
      {"measurement": "TGI", "setting": "HCC 2998", "result": 6.61, "unit": "µM"},
      {"measurement": "CC50", "setting": "HCC 2998; [2]", "result": 26.3, "unit": "µM"},
      {"measurement": "TGI", "setting": "COLO 205", "result": "> 100", "unit": "µM"},
      {"measurement": "CC50", "setting": "COLO 205; [2]", "result": "> 100", "unit": "µM"},
      {"measurement": "TGI", "setting": "NCI-H522", "result": 9.33, "unit": "µM"},
      {"measurement": "CC50", "setting": "NCI-H522; [2]", "result": "> 100", "unit": "µM"},
      {"measurement": "TGI", "setting": "NCI-H322M", "result": 29.5, "unit": "µM"},
      {"measurement": "CC50", "setting": "NCI-H322M; [2]", "result": 69.2, "unit": "µM"},
      {"measurement": "TGI", "setting": "NCI-H23", "result": 8.91, "unit": "µM"},
      {"measurement": "CC50", "setting": "NCI-H23; [2]", "result": 78.9, "unit": "µM"},
      {"measurement": "TGI", "setting": "NCI-H226", "result": 10, "unit": "µM"},
      {"measurement": "CC50", "setting": "NCI-H226; [2]", "result": 53.7, "unit": "µM"},
      {"measurement": "TGI", "setting": "HOP-62", "result": 61.7, "unit": "µM"},
      {"measurement": "CC50", "setting": "HOP-62; [2]", "result": "> 100", "unit": "µM"},
      {"measurement": "TGI", "setting": "EKVX", "result": 30.9, "unit": "µM"},
      {"measurement": "CC50", "setting": "EKVX; [2]", "result": 60.3, "unit": "µM"},
      {"measurement": "TGI", "setting": "A549", "result": 53.7, "unit": "µM"},
      {"measurement": "CC50", "setting": "A549; [2]", "result": "> 100", "unit": "µM"},
      {"measurement": "TGI", "setting": "MOLT-4", "result": "> 100", "unit": "µM"},
      {"measurement": "CC50", "setting": "MOLT-4; [2]", "result": "> 100", "unit": "µM"},
      {"measurement": "TGI", "setting": "K562", "result": "> 100", "unit": "µM"},
      {"measurement": "CC50", "setting": "K562; [2]", "result": "> 100", "unit": "µM"},
      {"measurement": "growth at 100 µM", "setting": "SF-268", "result": 67, "unit": "%"}
    ]}
  ]
}
